This test deals with T1, F508delCFTR (Homo sapiens, UniProt P13569, DEL508-508).
T1 construct: expressed in transfected cells; host or cells: CFBE4lo-F508delCFTR-HRP cells (human lung derived epithelial cell line, doxycycline-inducible)
In words: Cell Surface Expression-Horse Radish Peroxidase (CSE-HRP) Assay. The test is classed as cell-based. As to conditions: for pEC50: CFBE4lo-F508delCFTR-HRP cells, 18-24 hours at 33° C.; for Emax / Maximum % activity (with co-corrector): maximum at any tested concentration (up to 20 μM), normalized to on-plate positive control (2 μM co-corrector); for Maximum % activity (with co-corrector): with co-corrector 2 μM. The method in brief:
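CFBE4lo− cells expressing F508delCFTR with HRP in the fourth exofacial loop, induced 72 h with 0.5 μg/mL doxycycline, then treated 18-24 h at 33° C, alone or with 2 μM co-corrector (8 points, 3-fold, top 20 μM). Luminol luminescence after washing; % activity normalized to DMSO and 2 μM positive control; sigmoidal EC50 from triplicate plates.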

The mark [1] stands for this setting: test compound without co-corrector, HRP luminescence readout, read-out: EC50 (without co-corrector).
Setting [2] is: test compound without co-corrector.
Setting [3] is: with co-corrector 2 μM 3-[(2R,4R)-4-({[1-(2,2-difluoro-1,3-benzodioxol-5-yl)cyclopropyl]carbonyl}amino)-7-methoxy-3,4-dihydro-2H-chromen-2-yl]benzoic acid, read-out: EC50 (with co-corrector).

pEC50: −log10 of the molar value. Like-named read-outs stand apart in the source and are kept apart here.

T1 sequence (P13569 with tags, fused parts or gaps DEL508-508): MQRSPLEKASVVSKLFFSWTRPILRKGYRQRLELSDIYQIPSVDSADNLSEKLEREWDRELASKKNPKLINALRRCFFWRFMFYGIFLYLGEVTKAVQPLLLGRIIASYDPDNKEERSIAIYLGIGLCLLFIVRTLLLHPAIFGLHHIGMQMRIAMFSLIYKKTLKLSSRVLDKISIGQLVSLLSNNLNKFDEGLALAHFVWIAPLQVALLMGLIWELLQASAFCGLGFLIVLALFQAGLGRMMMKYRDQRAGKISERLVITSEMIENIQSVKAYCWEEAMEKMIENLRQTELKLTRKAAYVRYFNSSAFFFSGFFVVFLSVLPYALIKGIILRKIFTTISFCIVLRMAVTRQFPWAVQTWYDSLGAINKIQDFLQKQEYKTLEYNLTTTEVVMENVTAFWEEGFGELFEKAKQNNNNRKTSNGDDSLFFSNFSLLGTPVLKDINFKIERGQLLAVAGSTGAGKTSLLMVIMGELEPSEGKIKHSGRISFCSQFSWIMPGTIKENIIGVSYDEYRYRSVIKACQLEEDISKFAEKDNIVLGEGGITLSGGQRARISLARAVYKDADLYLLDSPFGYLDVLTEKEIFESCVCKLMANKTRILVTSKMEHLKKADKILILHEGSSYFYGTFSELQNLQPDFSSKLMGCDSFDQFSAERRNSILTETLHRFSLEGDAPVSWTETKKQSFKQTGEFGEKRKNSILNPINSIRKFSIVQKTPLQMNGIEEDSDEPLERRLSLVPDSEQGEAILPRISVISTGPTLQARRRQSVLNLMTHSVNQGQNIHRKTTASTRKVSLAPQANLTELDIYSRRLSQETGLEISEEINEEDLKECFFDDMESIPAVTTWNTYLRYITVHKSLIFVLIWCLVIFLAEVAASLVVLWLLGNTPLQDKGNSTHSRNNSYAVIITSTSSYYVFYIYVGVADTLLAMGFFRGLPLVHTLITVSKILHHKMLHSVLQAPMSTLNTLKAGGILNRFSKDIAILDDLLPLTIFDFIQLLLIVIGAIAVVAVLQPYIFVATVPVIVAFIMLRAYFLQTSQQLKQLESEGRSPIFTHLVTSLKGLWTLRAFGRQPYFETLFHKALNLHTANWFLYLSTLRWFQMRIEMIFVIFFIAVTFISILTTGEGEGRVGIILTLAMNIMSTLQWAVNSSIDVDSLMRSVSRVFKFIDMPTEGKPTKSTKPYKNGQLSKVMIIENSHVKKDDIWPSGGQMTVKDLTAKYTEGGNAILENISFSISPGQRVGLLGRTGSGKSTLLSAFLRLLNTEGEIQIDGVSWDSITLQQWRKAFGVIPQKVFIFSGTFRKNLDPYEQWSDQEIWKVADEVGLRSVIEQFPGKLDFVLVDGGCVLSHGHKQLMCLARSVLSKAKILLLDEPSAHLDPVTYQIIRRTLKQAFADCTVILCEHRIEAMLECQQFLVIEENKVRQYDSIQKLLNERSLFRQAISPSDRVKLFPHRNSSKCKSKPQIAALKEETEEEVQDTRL

For the compound `COc1ccc(Br)c2c1C(C(=O)NS(=O)(=O)c1cccc3ccccc13)CC1(CCCCC1)O2` (stereo not shown) [Example 41, 8-bromo-5-methoxy-N-(naphthalene-1-sulfonyl)-3,4-dihydrospiro[1-benzopyran-2,1′-cyclohexane]-4-carboxamide], the “Maximum % activity (with co-corrector)” value is given as “+++ (≥350)”. For the same compound, under setting [1], the pEC50 is > 5.52. Further, the Emax under setting [2] was ≥ 150%. In addition, the pEC50 under setting [3] is > 5.52.

With `COc1ccc(Br)c2c1C(C(=O)NS(=O)(=O)c1cccc3cccnc13)CCO2` (stereo not shown) [Example 42, 8-bromo-5-methoxy-N-(quinoline-8-sulfonyl)-3,4-dihydro-2H-1-benzopyran-4-carboxamide], the “Maximum % activity (with co-corrector)” value was “+++ (≥350)”. Further, the pEC50 under setting [1] is 5.00 to 5.52. The compound further displayed an Emax under setting [2] of 50 to 150%. Besides, under setting [3], the pEC50 is > 5.52.

For `O=C(NS(=O)(=O)c1cccc2ccccc12)C1COc2c(Cl)cccc21` (stereo not shown) [Example 43, 7-chloro-N-(naphthalene-1-sulfonyl)-2,3-dihydro-1-benzofuran-3-carboxamide], the “Maximum % activity (with co-corrector)” value was “++ (≥150 and <350)”. For the same compound, the pEC50 under setting [1] is 5.00 to 5.52. For the same compound, under setting [2], the Emax was < 50%. In addition, the pEC50 under setting [3] was 5.00 to 5.52.

For `CCC1(C(=O)NS(=O)(=O)c2cccc3ccccc23)COc2c(Cl)cccc21` (stereo not shown) [Example 44, 7-chloro-3-ethyl-N-(naphthalene-1-sulfonyl)-2,3-dihydro-1-benzofuran-3-carboxamide], the “Maximum % activity (with co-corrector)” value is “+++ (≥350)”. Besides, the pEC50 under setting [1] is 5.00 to 5.52. In addition, under setting [2], the Emax was 50 to 150%. The pEC50 under setting [3] is 5.00 to 5.52.

In the case of `O=C(NS(=O)(=O)c1cccc2ccccc12)C1COc2c1cccc2C(F)(F)F` (stereo not shown) [Example 45, N-(naphthalene-1-sulfonyl)-7-(trifluoromethyl)-2,3-dihydro-1-benzofuran-3-carboxamide], the “Maximum % activity (with co-corrector)” value was “++ (≥150 and <350)”. The negative-log EC50 (pEC50) under setting [1] was 5.00 to 5.52. The same compound came in with an Emax under setting [2] of 50 to 150%. The pEC50 under setting [3] is 5.00 to 5.52.

As to `COc1ccc(Br)c2c1C(C(=O)NS(=O)(=O)c1cccc3ncccc13)CC(C)(C)O2` (stereo not shown) [Example 46, 8-bromo-5-methoxy-2,2-dimethyl-N-(quinoline-5-sulfonyl)-3,4-dihydro-2H-1-benzopyran-4-carboxamide], the “Maximum % activity (with co-corrector)” value was “+++ (≥350)”. Besides, the pEC50 under setting [1] is > 5.52. In addition, the Emax under setting [2] was ≥ 150%. Further, the pEC50 under setting [3] was > 5.52.

Consider `COc1cccc2c1C(C(=O)NS(=O)(=O)c1cccc3cccnc13)CC(C)(C)O2` (stereo not shown) [Example 47, 5-methoxy-2,2-dimethyl-N-(quinoline-8-sulfonyl)-3,4-dihydro-2H-1-benzopyran-4-carboxamide], for which the “Maximum % activity (with co-corrector)” value was “++ (≥150 and <350)”. The pEC50 under setting [1] was 5.00 to 5.52. The Emax under setting [2] is < 50%. For the same compound, under setting [3], the pEC50 was 5.00 to 5.52.

Consider `COc1cccc2c1C(C(=O)NS(=O)(=O)c1cccc3ncccc13)CC(C)(C)O2` (stereo not shown) [Example 48, 5-methoxy-2,2-dimethyl-N-(quinoline-5-sulfonyl)-3,4-dihydro-2H-1-benzopyran-4-carboxamide], for which the “Maximum % activity (with co-corrector)” value is “+++ (≥350)”. In addition, the pEC50 under setting [1] was 5.00 to 5.52. Further, the Emax under setting [2] is ≥ 150%. The pEC50 under setting [3] was 5.00 to 5.52.

In the case of `COc1cccc2c1C(C(=O)NS(=O)(=O)c1cccc3ccccc13)CC(C)(C)O2` (stereo not shown) [Example 49, 5-methoxy-2,2-dimethyl-N-(naphthalene-1-sulfonyl)-3,4-dihydro-2H-1-benzopyran-4-carboxamide], the “Maximum % activity (with co-corrector)” value is “+++ (≥350)”. For the same compound, under setting [1], the pEC50 was 5.00 to 5.52. Also, the Emax under setting [2] was ≥ 150%. Moreover, under setting [3], the negative logarithm of the EC50 (pEC50) is > 5.52.

On to `COc1ccc(C#N)c2c1C(C(=O)NS(=O)(=O)c1cccc3ccccc13)CC(C)(C)O2` (stereo not shown) [Example 50, 8-cyano-5-methoxy-2,2-dimethyl-N-(naphthalene-1-sulfonyl)-3,4-dihydro-2H-1-benzopyran-4-carboxamide], for which the “Maximum % activity (with co-corrector)” value was “+++ (≥350)”. Under setting [1], the pEC50 is 5.00 to 5.52. In addition, under setting [2], the maximal effect (Emax) lay in the range of 50 to 150%. Also, under setting [3], the pEC50 was > 5.52.

Regarding `COc1ccc(Cl)c2c1C(C(=O)NS(=O)(=O)c1cccc3ccccc13)CC(C)(C)O2` (stereo not shown) [Example 51, 8-chloro-5-methoxy-2,2-dimethyl-N-(naphthalene-1-sulfonyl)-3,4-dihydro-2H-1-benzopyran-4-carboxamide], the “Maximum % activity (with co-corrector)” value is on record as “+++ (≥350)”. For the same compound, the pEC50 under setting [1] was > 5.52. Besides, under setting [2], the Emax is ≥ 150%. For the same compound, under setting [3], the pEC50 is > 5.52.

With `COc1ccc(Br)c2c1C(C(=O)NS(=O)(=O)c1cccc3ccccc13)CC(C)(C)O2` (stereo not shown) [Example 52, 8-bromo-5-methoxy-2,2-dimethyl-N-(naphthalene-1-sulfonyl)-3,4-dihydro-2H-1-benzopyran-4-carboxamide], the “Maximum % activity (with co-corrector)” value is listed as “+++ (≥350)”. Also, under setting [1], the pEC50 was > 5.52. Also, under setting [2], the Emax is ≥ 150%. The pEC50 under setting [3] was > 5.52.

Take `COc1ccc(C(F)(F)F)c2c1C(C(=O)NS(=O)(=O)c1cccc3ccccc13)CCO2` (stereo not shown) [Example 53, 5-methoxy-N-(naphthalene-1-sulfonyl)-8-(trifluoromethyl)-3,4-dihydro-2H-1-benzopyran-4-carboxamide]: the “Maximum % activity (with co-corrector)” value is recorded as “+++ (≥350)”. Further, the pEC50 under setting [1] was > 5.52. Further, under setting [2], the Emax was ≥ 150%. The pEC50 under setting [3] was > 5.52.

Regarding `COc1ccc(C2CCC2)c2c1C(C(=O)NS(=O)(=O)c1cccc3ncccc13)CCO2` (stereo not shown) [Example 54, 8-cyclobutyl-5-methoxy-N-(quinoline-5-sulfonyl)-3,4-dihydro-2H-1-benzopyran-4-carboxamide], the “Maximum % activity (with co-corrector)” value is recorded as “+++ (≥350)”. Moreover, the pEC50 under setting [1] is 5.00 to 5.52. Also, the Emax under setting [2] is ≥ 150%. The pEC50 under setting [3] is > 5.52.

Regarding `COc1ccc(C2CCC2)c2c1[C@@H](C(=O)NS(=O)(=O)c1cccc3ccccc13)CCO2` [Example 55, (4S)-8-cyclobutyl-5-methoxy-N-(naphthalene-1-sulfonyl)-3,4-dihydro-2H-1-benzopyran-4-carboxamide], the “Maximum % activity (with co-corrector)” value is listed as “+++ (≥350)”. Moreover, the pEC50 under setting [1] is 5.00 to 5.52. Moreover, under setting [2], the maximum response (Emax) is ≥ 150%. In addition, the negative-log EC50 (pEC50) under setting [3] was 5.00 to 5.52.

As for `COc1ccc(C2CCC2)c2c1[C@H](C(=O)NS(=O)(=O)c1cccc3ccccc13)CCO2` [Example 56, (4R)-8-cyclobutyl-5-methoxy-N-(naphthalene-1-sulfonyl)-3,4-dihydro-2H-1-benzopyran-4-carboxamide], the “Maximum % activity (with co-corrector)” value was “+++ (≥350)”. For the same compound, the pEC50 under setting [1] is > 5.52. For the same compound, the Emax under setting [2] was ≥ 150%. For the same compound, the negative logarithm of the EC50 (pEC50) under setting [3] was > 5.52.

As to `COc1ccc(C(F)(F)F)c2c1[C@@H](C(=O)NS(=O)(=O)c1cccc3ccccc13)CCO2` [Example 57, (4S)-5-methoxy-N-(naphthalene-1-sulfonyl)-8-(trifluoromethyl)-3,4-dihydro-2H-1-benzopyran-4-carboxamide], the “Maximum % activity (with co-corrector)” value is “+++ (≥350)”. The pEC50 under setting [1] was 5.00 to 5.52. Further, the maximal response (Emax) under setting [2] was ≥ 150%. Further, the pEC50 under setting [3] was > 5.52.

As for `COc1ccc(C(F)(F)F)c2c1[C@H](C(=O)NS(=O)(=O)c1cccc3ccccc13)CCO2` [Example 58, (4R)-5-methoxy-N-(naphthalene-1-sulfonyl)-8-(trifluoromethyl)-3,4-dihydro-2H-1-benzopyran-4-carboxamide], the “Maximum % activity (with co-corrector)” value is “+++ (≥350)”. In addition, under setting [1], the pEC50 is > 5.52. In addition, the Emax under setting [2] is ≥ 150%. Further, the pEC50 under setting [3] is > 5.52.

As for `COc1ccc(C2CCC2)c2c1[C@@H](C(=O)NS(=O)(=O)c1cccc3ncccc13)CCO2` [Example 59, (4S)-8-cyclobutyl-5-methoxy-N-(quinoline-5-sulfonyl)-3,4-dihydro-2H-1-benzopyran-4-carboxamide], the “Maximum % activity (with co-corrector)” value is on record as “+++ (≥350)”. In addition, the pEC50 under setting [1] was 5.00 to 5.52. The maximal effect (Emax) under setting [2] was ≥ 150%. For the same compound, under setting [3], the pEC50 was 5.00 to 5.52.

On to `COc1ccc(C2CCC2)c2c1[C@H](C(=O)NS(=O)(=O)c1cccc3ncccc13)CCO2` [Example 60, (4R)-8-cyclobutyl-5-methoxy-N-(quinoline-5-sulfonyl)-3,4-dihydro-2H-1-benzopyran-4-carboxamide], for which the “Maximum % activity (with co-corrector)” value is “+++ (≥350)”. Further, the pEC50 under setting [1] was > 5.52. The Emax under setting [2] was ≥ 150%. Further, under setting [3], the pEC50 is > 5.52.

For the compound `CCC1(C(=O)NS(=O)(=O)c2cccc3ccccc23)COc2c(C(F)(F)F)cccc21` (stereo not shown) [Example 61, 3-ethyl-N-(naphthalene-1-sulfonyl)-7-(trifluoromethyl)-2,3-dihydro-1-benzofuran-3-carboxamide], the “Maximum % activity (with co-corrector)” value is recorded as “+++ (≥350)”. The pEC50 under setting [1] was 5.00 to 5.52. In addition, the Emax under setting [2] is ≥ 150%. Further, the pEC50 under setting [3] was 5.00 to 5.52.

As for `COc1ccc(OC)c2c1OCC2C(=O)NS(=O)(=O)c1cccc2ccccc12` (stereo not shown) [Example 62, 4,7-dimethoxy-N-(naphthalene-1-sulfonyl)-2,3-dihydro-1-benzofuran-3-carboxamide], the “Maximum % activity (with co-corrector)” value is given as “+++ (≥350)”. Also, the pEC50 under setting [1] was 5.00 to 5.52. The Emax under setting [2] is ≥ 150%. Moreover, the pEC50 under setting [3] is 5.00 to 5.52.

In general, pEC50 refers to the EC50 on a negative log10 scale, so that one unit is a factor of ten. A word on the Emax: it is the greatest response seen or fitted, relative to the assay's reference.

For the origin of these results see patent US10428017B2, “Modulators of the cystic fibrosis transmembrane conductance regulator protein and methods of use” (AbbVie S.à.r.l., priority 2017, dated 2019).
